Here are results for eight molecules from US20250361227A1, “INHIBITORS OF FLI1 AND ERG” (UNIVERSITY OF VIRGINIA PATENT FOUNDATION, priority 2022, published 2025).

One assay addresses T1, Ets1 (Homo sapiens, UniProt P14921).
T1 sequence (P14921 1-441): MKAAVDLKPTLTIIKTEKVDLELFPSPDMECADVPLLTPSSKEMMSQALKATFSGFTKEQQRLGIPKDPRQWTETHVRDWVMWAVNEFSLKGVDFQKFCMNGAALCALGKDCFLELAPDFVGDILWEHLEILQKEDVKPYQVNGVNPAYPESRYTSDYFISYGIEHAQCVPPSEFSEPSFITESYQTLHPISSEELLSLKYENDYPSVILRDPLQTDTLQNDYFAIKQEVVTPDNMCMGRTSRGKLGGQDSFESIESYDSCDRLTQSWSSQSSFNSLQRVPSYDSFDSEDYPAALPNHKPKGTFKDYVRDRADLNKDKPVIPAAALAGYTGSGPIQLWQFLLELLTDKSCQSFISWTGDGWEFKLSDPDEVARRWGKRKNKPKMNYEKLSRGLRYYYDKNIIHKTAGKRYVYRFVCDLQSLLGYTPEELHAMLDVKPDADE
As to the kind of experiment: Fluorescence polarization DNA binding assay, auto-inhibited Ets-1. Conditions: auto-inhibited construct; NA = no activity up to 2000 μM; >number = estimate from fit with lower bound. The source says:
(§1) The constructs of ERG which retain full auto-inhibition were previously delineated (17). Fluorescence polarization-based assays for DNA binding were then developed, which were used for screening. In addition to the auto-inhibited form of ERG, it was important to also have an assay using its Ets domain, i.e., the uninhibited form of the protein, to compare action of compounds. Compounds which are active against the auto-inhibited form of the protein but have little or no effect on the uninhibited form were sought, indicating their binding is mediated by the non-conserved auto-inhibitory modules rather than the highly conserved Ets domain. […] Fragment screening is an alternative approach that has gained a great deal of favor in the pharma industry recently that employs relatively small molecules (22). […] The auto-inhibited construct was screened first with a dose dependent screen of actives with ERGi using fluorescein- and Texas Red-DNA and then the positive hits were counter-screened with the ERG Ets domain, specifically a screen of actives with ERGu, the latter screen serving to remove compounds which bind to the conserved Ets domain or to DNA, which left 26 compounds which inhibit the auto-inhibited construct of ERG binding to DNA but not the uninhibited ERG (the Ets domain) binding to DNA. ERGi is the auto-inhibited construct of ERG (272-388) and ERGu is the uninhibited DNA binding domain construct of ERG (289-378). […] The IC50 of the validated hits was 0.6-7 mM. […] Importantly, chemical shift changes upon compound addition are observed in the ^15N-^1H HSQC NMR spectra of ERG for amino acids located in the auto-inhibitory modules of ERG, indicating they do interact with these regions of the protein. It is critical to also develop assays for other ETS family members to assess the specificity of action of the compounds identified in the screen, so auto-inhibited constructs were expressed and assays were developed for five other ETS family members and assays for additional members of the family were also developed.
(§2) Using a standard medicinal chemistry approach, further optimization of the fragment hits were pursued. The specificity of parent fragments and their optimized derivatives with 5 additional Ets proteins which are representatives of 5 additional sub-families, were evaluated, as shown in Table 2. […] NA in Table 2 represents no activity up to the 2000 μM maximum concentration. >number in Table 2 represents some activity at highest concentrations so data fit with a lower bound to obtain an estimate of IC50.

The next assay deals with T2, ETV6 (TEL) (Homo sapiens, UniProt P41212).
T2 sequence (P41212 1-452): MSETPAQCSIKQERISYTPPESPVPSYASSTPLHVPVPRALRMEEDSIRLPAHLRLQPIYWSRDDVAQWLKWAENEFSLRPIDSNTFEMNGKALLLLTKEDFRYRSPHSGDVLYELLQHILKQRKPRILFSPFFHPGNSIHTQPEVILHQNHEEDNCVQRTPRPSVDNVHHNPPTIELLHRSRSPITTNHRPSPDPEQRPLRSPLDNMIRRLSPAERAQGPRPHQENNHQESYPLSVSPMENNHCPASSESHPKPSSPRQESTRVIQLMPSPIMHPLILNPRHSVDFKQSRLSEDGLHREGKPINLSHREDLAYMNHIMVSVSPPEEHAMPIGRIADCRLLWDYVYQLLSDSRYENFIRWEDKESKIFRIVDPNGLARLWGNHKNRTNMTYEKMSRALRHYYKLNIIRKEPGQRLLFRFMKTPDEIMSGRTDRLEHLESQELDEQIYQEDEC
As to the kind of experiment: Fluorescence polarization DNA binding assay, auto-inhibited ETV6. Conditions: auto-inhibited construct; NA = no activity up to 2000 μM; >number = estimate from fit with lower bound.
Text: as §1, §2

For assay [1], the target named is T3, ERG auto-inhibited construct (ERGi, 272-388) (Homo sapiens, UniProt P11308).
T3 construct: made in house
T3 sequence (P11308 272-388 isoform P11308-1): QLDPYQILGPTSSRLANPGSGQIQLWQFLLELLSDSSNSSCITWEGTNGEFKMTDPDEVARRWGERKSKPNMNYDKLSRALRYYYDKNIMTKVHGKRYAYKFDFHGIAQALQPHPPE
The assay can be described thus: ERGi-DNA fluorescence polarization assay. Type of assay: binding.
Text: as §1, §2
(In fluorescence polarisation assays a small probe gives low polarisation when free and higher when bound to something large.)

Another assay concerns the target T4, ELF3 (Homo sapiens, UniProt P78545).
T4 sequence (P78545 1-371): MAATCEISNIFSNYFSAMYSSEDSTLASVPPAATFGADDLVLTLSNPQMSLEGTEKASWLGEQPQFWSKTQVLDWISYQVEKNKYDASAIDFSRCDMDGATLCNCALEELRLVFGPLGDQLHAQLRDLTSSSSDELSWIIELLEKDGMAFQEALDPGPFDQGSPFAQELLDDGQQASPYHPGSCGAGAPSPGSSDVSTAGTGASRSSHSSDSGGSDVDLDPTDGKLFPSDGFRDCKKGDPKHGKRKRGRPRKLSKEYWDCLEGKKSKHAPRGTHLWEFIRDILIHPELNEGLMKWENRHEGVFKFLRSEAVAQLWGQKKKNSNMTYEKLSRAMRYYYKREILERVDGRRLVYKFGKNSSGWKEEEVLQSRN
The assay can be described thus: Fluorescence polarization DNA binding assay, auto-inhibited ELF3. The settings on record: auto-inhibited construct; NA = no activity up to 2000 μM; >number = estimate from fit with lower bound.
Text: as §1, §2

In assay [2] the target is T5, ERG isolated Ets domain (ERGu, 289-378) (Homo sapiens, UniProt P11308).
T5 construct: made in house
T5 sequence (P11308 289-378 isoform P11308-1): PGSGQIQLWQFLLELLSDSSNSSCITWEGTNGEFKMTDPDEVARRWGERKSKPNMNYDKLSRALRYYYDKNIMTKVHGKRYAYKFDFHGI
As to the kind of experiment: Fluorescence polarization DNA binding assay, uninhibited ERG. Conditions: FP DNA binding, NA = no activity up to 2000 μM, >number = estimate from fit with lower bound.
Text: as §1, §2

A further assay concerns the target T6, ELK1 (Homo sapiens, UniProt P19419).
T6 sequence (P19419 1-428): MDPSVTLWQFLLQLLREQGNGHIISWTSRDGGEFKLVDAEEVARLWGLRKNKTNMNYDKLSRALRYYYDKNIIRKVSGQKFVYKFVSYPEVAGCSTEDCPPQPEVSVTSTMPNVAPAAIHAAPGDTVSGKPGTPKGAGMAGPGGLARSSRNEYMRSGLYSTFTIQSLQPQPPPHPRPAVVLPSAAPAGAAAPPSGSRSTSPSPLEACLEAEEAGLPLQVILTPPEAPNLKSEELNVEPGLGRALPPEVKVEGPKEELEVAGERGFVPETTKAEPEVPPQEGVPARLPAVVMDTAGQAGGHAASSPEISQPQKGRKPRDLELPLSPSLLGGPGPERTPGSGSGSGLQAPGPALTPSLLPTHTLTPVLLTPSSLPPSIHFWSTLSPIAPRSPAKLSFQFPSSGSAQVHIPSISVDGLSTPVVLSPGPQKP
As to the kind of experiment: Fluorescence polarization DNA binding assay, auto-inhibited ELK1. Conditions: auto-inhibited construct; NA = no activity up to 2000 μM; >number = estimate from fit with lower bound.
Text: as §1, §2

The next assay deals with Spi1 (PU.1) (Homo sapiens, UniProt P17947). The assay can be described thus: Fluorescence polarization DNA binding assay, auto-inhibited PU.1. Conditions: auto-inhibited construct; NA = no activity up to 2000 μM; >number = estimate from fit with lower bound.
Text: as §1, §2

The subject of assay [3] is Ewing's sarcoma cell lines. As to the kind of experiment: Growth of Ewing's sarcoma cell lines. Type of assay: cell-based. Conditions: read-out: IC50 values for inhibition of the growth. The method, then:
The compounds of formula (I), in particular those in Table 3, were tested for their effects on the growth of Ewing sarcoma cell lines as well as a rhabdomyosarcoma cell line as a control. The inhibitors are active against Ewing sarcoma cell lines with sub μM EC50 values but not active with the rhabdomyosarcoma cell line. The relative activity of the compounds in the biochemical assay was also observed in the cellular data, consistent with an on-target mechanism of action. […] The inhibitor decreases expression of the two genes activated by EWS-FL11 and activates the expression of the gene repressed by EWS-FLI1, consistent with an on-target mechanism of action. The inhibitors have also been evaluated across a panel of leukemia cell lines and see selective activity on cell lines with an ERG and/or FLI1 dependence.
Evaluation of ERG inhibitors on Ewing's sarcoma cell lines. FIGS. 16A-16D show the results of treatment of Ewing's sarcoma cell lines with the bivalent ERG inhibitors. […] Ewing's sarcoma has EWS-FLI1 and EWS-ERG fusions (FLI1 is highly homologous to ERG). ERG inhibitors show submicromolar EC50 values for Ewing's sarcoma cell lines. […] Importantly, for the unrelated rhabdomyosarcoma cell line included in this panel, there was minimal inhibition of growth.

[4] abbreviates: FP DNA binding, maximum concentration 2000 μM, read-out: IC50 ERG Auto-inhibited construct.
Where [5] appears, read: optimized fragment analogs, values in text, read-out: IC50.

The structures appear in SMILES notation. Read-outs that look alike come from different tables or passages of the source.

As a reminder, the IC50 is the midpoint of a concentration-inhibition curve.

In the case of `Cc1ccc(OCC(=O)Nc2cccc(O)c2)cc1` [Compound 6H6], the IC50 at Ets1 was more than 4000 µM; on ETV6 (TEL), more than 2000 µM; in assay [1] (setting [4]), 588 µM; at ELF3 it was more than 2000 µM; in assay [2] it was more than 2000 µM; on ELK1, more than 4500 µM. The IC50 on Spi1 (PU.1) is more than 2000 µM.
With `Nc1ccc(Cl)c(-c2nc3ccccc3o2)c1` [Compound 9B5], the IC50 is more than 2000 µM at Ets1; more than 2500 µM on ETV6 (TEL); 965 µM in assay [1] (setting [4]); 1830 µM on ELF3; more than 2000 µM in assay [2]; more than 2100 µM on ELK1. Moreover, the half-inhibitory concentration (IC50) on Spi1 (PU.1) is more than 4100 µM.
On to `COc1cccc2cc(C(C)=O)oc12` [Compound 9F1], for which the IC50 (at Ets1; at ETV6 (TEL); on ELF3; in assay [2]; on ELK1; at Spi1 (PU.1)) was more than 2000 µM in each case.
Regarding `COc1ccc(-c2c(C(C)=O)oc3c(OC)cccc23)cc1` [KK-16-69], the IC50 on Ets1 is more than 2000 µM; on ETV6 (TEL) it was more than 7800 µM; in assay [1] (setting [5]), 99 µM; on ELF3 it was more than 2000 µM; in assay [2] it was more than 2000 µM; on ELK1, more than 2000 µM. Besides, the IC50 on Spi1 (PU.1) is more than 5700 µM.
On to `Cc1ccc(-c2nc3ccccc3o2)cc1C` [KK-19-109], for which the IC50 in assay [1] (setting [5]) was determined as 63 µM.
For the molecule `COc1cc(OCC(=O)Nc2cccc(O)c2)ccc1C` [KK-22-93], the IC50 at Ets1 was more than 3600 µM; on ETV6 (TEL), more than 2000 µM; in assay [1] (setting [5]), 88 µM; on ELF3, more than 2000 µM; in assay [2] it was more than 3000 µM; at ELK1, more than 4750 µM. Further, the concentration for half-maximal inhibition (IC50) on Spi1 (PU.1) is more than 2000 µM.
`CCNc1cc(-c2nc3ccccc3o2)ccc1C` [KK-23-07]: the IC50 at Ets1 was more than 2600 µM; at ETV6 (TEL), more than 4400 µM; in assay [1] (setting [4]) it was 837 µM; at ELF3 it was 1740 µM; in assay [2], more than 2000 µM; at ELK1 it was more than 2500 µM. Besides, at Spi1 (PU.1), the half-maximal inhibitory concentration (IC50) is more than 3300 µM.
For `Cc1ccc(-c2nc3cc(Cl)c(NC(=O)CCOCCn4cc(COCCOCCOCCOc5ccc(S(=O)(=O)C6CCN(C(=O)/C=C/c7cc8ccccc8o7)C6)cc5)nn4)cc3o2)cc1` (stereo not shown) [KK-36-84], in assay [3], the IC50 was not above 1 µM.
